# How the values were obtained:
# Assay in all cases: microbiostatic property by turbidity in standard liquid medium
# Type in all cases: cell-based
# Conditions in all cases: 35° C.
# Escherichia coli = system: Escherichia coli
# Experimental: […] The turbidity was determined by measuring the absorbance at a wavelength of 610 nm (the spectrophotometer used was PTL-396S by JASCO Co., Ltd.), and the units for the turbidity were based on JIS1010.
# Saccharomyces cerevisiae = system: Saccharomyces cerevisiae
# Description: (§1) For evaluation of the shelf-life extending property (microbiostatic property), there was used a standard liquid medium (pH 7.2) containing the cacao husk-derived water-soluble dietary fiber of the invention at 0%, 0.5% or 1.0% with suitable amounts of shelf stability increasing substances, and using Escherichia coli, Aspergilius oryzae and Saccharomyces cerevisiae as the target strains. […] As the turbidity of the medium increases with growth of the cells, a test substance with a microbiostatic property will inhibit the cell growth and result in less turbidity. The turbidity was determined by measuring the absorbance at a wavelength of 610 nm (the spectrophotometer used was PTL-396S by JASCO Co., Ltd.), and the units for the turbidity were based on JIS1010.
# Aspergillus oryzae = system: Aspergillus oryzae
# Description: as §1
molecule,measurement,setting,value
CCO [Ethanol],turbidity,"Escherichia coli; added at 0.05%, days stored 1",104 unit
same,turbidity,"Escherichia coli; added at 0.05%, days stored 2",441 unit
same,turbidity,"Escherichia coli; added at 0.1%, days stored 1",112 unit
same,turbidity,"Escherichia coli; added at 0.1%, days stored 2",382 unit
same,turbidity,"Escherichia coli; added at 0.1%, days stored 3",455 unit
same,turbidity,"Saccharomyces cerevisiae; added at 0.05%, days stored 1",59 unit
same,turbidity,"Saccharomyces cerevisiae; added at 0.05%, days stored 2",251 unit
same,turbidity,"Saccharomyces cerevisiae; added at 0.05%, days stored 3",487 unit
same,turbidity,"Saccharomyces cerevisiae; added at 0.1%, days stored 1",36 unit
same,turbidity,"Saccharomyces cerevisiae; added at 0.1%, days stored 2",182 unit
same,turbidity,"Saccharomyces cerevisiae; added at 0.1%, days stored 3",411 unit
same,turbidity,"Aspergillus oryzae; added at 0.05%, days stored 1",17 unit
same,turbidity,"Aspergillus oryzae; added at 0.05%, days stored 2",128 unit
same,turbidity,"Aspergillus oryzae; added at 0.05%, days stored 3",328 unit
same,turbidity,"Aspergillus oryzae; added at 0.1%, days stored 1",10 unit
same,turbidity,"Aspergillus oryzae; added at 0.1%, days stored 2",112 unit
same,turbidity,"Aspergillus oryzae; added at 0.1%, days stored 3",251 unit
same,turbidity,"Aspergillus oryzae; added at 0.1%, days stored 4",475 unit
O=C1O[C@H]([C@@H](O)CO)C([O-])=C1O.[Na+] [Na ascorbate],turbidity,"Escherichia coli; added at 0.1%, days stored 1",115 unit
same,turbidity,"Escherichia coli; added at 0.1%, days stored 2",402 unit
same,turbidity,"Escherichia coli; added at 0.5%, days stored 1",18 unit
same,turbidity,"Escherichia coli; added at 0.5%, days stored 2",211 unit
same,turbidity,"Escherichia coli; added at 0.5%, days stored 3",315 unit
same,turbidity,"Escherichia coli; added at 0.5%, days stored 4",452 unit
same,turbidity,"Saccharomyces cerevisiae; added at 0.1%, days stored 1",122 unit
same,turbidity,"Saccharomyces cerevisiae; added at 0.1%, days stored 2",391 unit
same,turbidity,"Saccharomyces cerevisiae; added at 0.5%, days stored 1",76 unit
same,turbidity,"Saccharomyces cerevisiae; added at 0.5%, days stored 2",251 unit
same,turbidity,"Saccharomyces cerevisiae; added at 0.5%, days stored 3",433 unit
same,turbidity,"Aspergillus oryzae; added at 0.1%, days stored 1",107 unit
same,turbidity,"Aspergillus oryzae; added at 0.1%, days stored 2",370 unit
same,turbidity,"Aspergillus oryzae; added at 0.5%, days stored 1",58 unit
same,turbidity,"Aspergillus oryzae; added at 0.5%, days stored 2",178 unit
same,turbidity,"Aspergillus oryzae; added at 0.5%, days stored 3",422 unit
[Cl-].[Na+] [Salt],turbidity,"Escherichia coli; added at 1.0%, days stored 1",141 unit
same,turbidity,"Escherichia coli; added at 1.0%, days stored 2",524 unit
same,turbidity,"Escherichia coli; added at 2.0%, days stored 1",31 unit
same,turbidity,"Escherichia coli; added at 2.0%, days stored 2",353 unit
same,turbidity,"Saccharomyces cerevisiae; added at 1.0%, days stored 1",112 unit
same,turbidity,"Saccharomyces cerevisiae; added at 1.0%, days stored 2",425 unit
same,turbidity,"Saccharomyces cerevisiae; added at 2.0%, days stored 1",24 unit
same,turbidity,"Saccharomyces cerevisiae; added at 2.0%, days stored 2",377 unit
same,turbidity,"Aspergillus oryzae; added at 1.0%, days stored 1",99 unit
same,turbidity,"Aspergillus oryzae; added at 1.0%, days stored 2",487 unit
same,turbidity,"Aspergillus oryzae; added at 2.0%, days stored 1",68 unit
same,turbidity,"Aspergillus oryzae; added at 2.0%, days stored 2",272 unit
same,turbidity,"Aspergillus oryzae; added at 2.0%, days stored 3",429 unit
Glycerin fatty acid ester,turbidity,"Escherichia coli; added at 0.01%, days stored 1",113 unit
same,turbidity,"Escherichia coli; added at 0.01%, days stored 2",415 unit
same,turbidity,"Escherichia coli; added at 0.05%, days stored 1",47 unit
same,turbidity,"Escherichia coli; added at 0.05%, days stored 2",196 unit
same,turbidity,"Escherichia coli; added at 0.05%, days stored 3",305 unit
same,turbidity,"Escherichia coli; added at 0.05%, days stored 4",481 unit
same,turbidity,"Saccharomyces cerevisiae; added at 0.01%, days stored 1",79 unit
same,turbidity,"Saccharomyces cerevisiae; added at 0.01%, days stored 2",281 unit
same,turbidity,"Saccharomyces cerevisiae; added at 0.01%, days stored 3",485 unit
same,turbidity,"Saccharomyces cerevisiae; added at 0.05%, days stored 1",38 unit
same,turbidity,"Saccharomyces cerevisiae; added at 0.05%, days stored 2",107 unit
same,turbidity,"Saccharomyces cerevisiae; added at 0.05%, days stored 3",375 unit
same,turbidity,"Aspergillus oryzae; added at 0.01%, days stored 1",86 unit
same,turbidity,"Aspergillus oryzae; added at 0.01%, days stored 2",417 unit
same,turbidity,"Aspergillus oryzae; added at 0.05%, days stored 1",53 unit
same,turbidity,"Aspergillus oryzae; added at 0.05%, days stored 2",199 unit
same,turbidity,"Aspergillus oryzae; added at 0.05%, days stored 3",418 unit
